Values of other authors, collected in patent US20260216201A1 (priority 2025, published 2026).

Conditions: n-octanol/buffer pH 7.4

- apparent partition coefficient (log P): 0.1
SMILES: Cc1cnc(NC(=O)C2=C(O)c3ccccc3S(=O)(=O)N2C)s1 [Meloxicam, 4-hydroxy-2-methyl-N-(5 methyl-2-thiazolyl)-2H-1,2-benzothiazine-3-carboxamide-1,1-dioxide]
